The values that follow come from patent publication US20190151271A1, “COMPOSITIONS AND METHODS FOR TREATMENT OF EYE DISEASES” (The Johns Hopkins University, priority 2017, published 2019).

Series [1] is described as follows: Evaluation of retinal penetration of NACA: NACA/NAC levels in plasma, aqueous, vitreous and retina after 20 mg/mL NACA in drinking water for 7 days. The format is in vivo, mice (rd10 and wild type C57/BL6). Particulars: for mean level in aqueous humor compared with plasma: 20 mg/mL NACA in drinking water (FIG. 2); for measurability in the retina: animals treated with NACA, N=20 eyes per strain (FIG. 4); for mean level in retina compared with plasma: either type of mice (FIG. 4 compared to FIG. 1); for mean retina levels: 20 mg/mL NACA in drinking water P28-P35, estimated dose 60-80 mg/day. As for the experimental part: The objective of this study was to determine retinal levels of NACA/NAC after administration of 20 mg/mL NACA in drinking water for 7 days in a mouse model of RP and in wild type mice. This experiment was designed to provide rapid confirmation that NACA and/or NAC penetrate the retina following oral administration and to allow comparison of the tissue levels of NACA and NAC in vitreous and retina to plasma. It also provided a comparison of retinal penetration in mice with RP and wild type mice to determine if the breakdown in the blood-retinal barrier in RP affects the levels of NACA in the retina.
Animals and Treatments. Mice were treated in accordance with the recommendations of the Association for Research in Vision and Ophthalmology. Litters of homozygous rd10/rd10 mice (B6.CXB1-Pde6brd10/J) and wild type C57/BL6 mice (The Jackson Laboratory, Bar Harbor, Me.) were used for these studies.
Starting on post-natal day 28 (P28), animals were given normal drinking water (controls, n=10 for each strain) or water containing 20 mg/ml NACA (n=10 for each strain).
Analysis of NACA and NAC. Upon sacrifice of the mice on P35 (post-natal day 35), retina, aqueous, vitreous and plasma were collected, weighed, and stabilized as quickly as possible and stored at −80° C. prior to shipment to AIT Bioscience, LLC (Indianapolis, Ind.). The qualified bioanalytical method (BAM.0445.01) for the quantitation of total NAC NACA in K2EDTA was based on derivatization, protein precipitation extraction, and LC-MS/MS instrumental analysis. Any disulfides were reduced to free thiols and subsequently reacted with 2-chloro-1-methylpyridinium iodide (CMPI) to form stable thioethers. The thioether derivatives were detected by LC-MS/MS. Stable label isotope internal standards were used. The method covered a concentration range from 50.0 to 50,000 ng/mL.
Evaluation of Retinal Penetration of NACA. To determine retinal levels of NACA/NAC after administration of 20 mg/mL NACA in drinking water for 7 days. This experiment was designed to provide rapid confirmation that NACA penetrates the retina following oral administration and to compare levels of NACA and its major metabolite, NAC. in retina, aqueous humor, vitreous humor and plasma. This experiment was also designed to evaluate if the breakdown in the blood-retinal barrier in RP (simulated by the rd10 mice) affects the levels of NACA in the retina by comparing animals with RP to wild type mice.
Rd10 and C57BL/6 wild type mice began treatment at P28 (post-natal day 28), at P35 mice were euthanized and plasma, vitreous and retina samples were sent to AITBioscences (Indianapolis, Ind.) for determination of NACA and NAC levels by a validated method using high-pressure liquid chromatography with tandem mass spectrometric/mass spectrometric detection (LCMS). Experimental groups: (n=10/group). The research was performed in 4 discrete treatment groups: • 1. Rd10 allowed to freely drink NACA 20 mg/mL-spiked drinking water with measurements at P35; • 2. Rd10 allowed to freely drink untreated water with measurements at P35; • 3. C57/BL6 NACA 20 mg/mL in drinking water measurements at P35; • 4. C57/BL6 allowed to freely drink untreated water with measurements at P35.

For series [2] the following is noted: cited from earlier work; for plasma level: rats, within 30 minutes following oral administration of 500 mg/kg NACA; for detection in the brain: within 30 minutes following oral administration of NACA.
Another series concerns rd10 mice. Particulars: 7 mg/mL NACA versus 20 mg/mL NAC in drinking water, P35 and P50; cited from earlier work.
For series [3], the system named is human retinal pigment epithelial cells. Particulars: cited from earlier work.
The test system of series [4] is mice exposed to phototoxic doses of light. The following applies: cited from earlier work.
The conditions of series [5]: oral formulations; cited from earlier work.
The next series concerns cone survival. Particulars: orally administered; cited from earlier work.

With N-acetylcysteine amide [NACA], in series [1], the “mean level in aqueous humor compared with plasma” value is “lower than in plasma”; the “measurability in the retina” value is recorded as “measurable in all animals treated with NACA”; the “mean level in retina compared with plasma” value was “higher, in either type of mice, than those observed in plasma”. In addition, in series [1] (20 mg/mL NACA in drinking water (FIG. 5)), the “ratio of NACA:NAC in the retina, rd10 mice compared with C57/B16 mice” value was “greater in the retina of rd10 mice than in C57/B16 mice”. Moreover, the “mean plasma level, rd10 mice compared with wild type” value in series [1] (20 mg/ml NACA in drinking water (FIG. 1)) is “greater in rd10 mice than in the wild type”. Moreover, the “level in vitreous humor” value in series [1] (N=7 or 8 eyes rd10, N=10 eyes C57/B16 (FIG. 3)) is recorded as “A similar pattern was observed”. Moreover, the “mean concentration in aqueous humor, rd10 mice compared with wild type” value in series [1] (N=8 eyes rd10, N=10 C57/B16 (FIG. 2)) was “higher in rd10 mice than wild type”. The “mean NACA level in plasma compared with NAC level” value in series [1] (both strains, 20 mg/ml NACA in drinking water, N=10 per strain (FIG. 1)) is “greater than the NAC levels in both strains of mice”. For the same compound, in series [1] (rd10 mice), the mean retina levels result is reported as “approximately 6.5 μg/g”. Also, in series [1] (wild type mice), the mean retina levels was approximately 2.4 µg/g. In series [2], the plasma level is 15.07 ± 5.08 µM and the “detection in the brain” value is reported as “detected in the brain”. Besides, the “protection of scotopic and photopic b-waves and cone density” value in the series on rd10 mice is reported as “more effective”. Further, the “protection against oxidative stress-induced cellular injury and death” value in series [3] is “protected against oxidative stress-induced cellular injury and death”. In addition, the “retinal pigment epithelial cell integrity, outer nuclear layer cell death, photoreceptor function” value in series [4] is “maintained retinal pigment epithelial cell integrity, prevented outer nuclear layer cell death and rescued photoreceptor function”.
Regarding `CC(=O)N[C@@H](CS)C(=O)O` [NAC, N-Acetylcysteine, reference compound], in series [1], the “mean level in aqueous humor compared with plasma” value was “lower than in plasma”; the “measurability in the retina” value was “measurable in all animals treated with NACA”; the “mean level in retina compared with plasma” value is reported as “higher, in either type of mice, than those observed in plasma”. In series [2], the plasma level is 84.55 ± 6.73 µM and the “detection in the brain” value is reported as “detected in the brain”. For the same compound, the “systemic bioavailability for oral administration” value in series [5] is recorded as less than 10%. Besides, the “cone survival and cone function” value in the series on cone survival was “promotes prolonged cone survival and maintenance of cone function”.
